In series [1] the test system is nitrite levels in the culture media. Put plainly: Nitrite level (Griess Reagent System) in LPS-challenged RAW 264.7 cells. Type of series: cell-based, mouse. More on the design: key: NS=not significant; a “+” sign=anti-inflammatory or increased cell numbers; a “−” sign=cell toxicity or pro-inflammatory. To be noted: LPS 30 or 60 ng/mL, 24 h. Put shortly: (§1)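 RAW 264.7 cells pretreated 1 h with compound in DMSO vehicle, then challenged with LPS (30 or 60 ng/mL) for 24 h at 37° C. Conditioned-media nitrite by Griess (520 nm, sodium nitrite standard curve, 1.5 μM cutoff) in μM; mouse TNF-α by ELISA as pg/ml or % change from control.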

Series [2] relates to RAW 264.7 cells. The experiment in a line: Cell viability (CellTiter 96 AQueous One) of LPS-challenged RAW 264.7 cells. More on the design: key: NS=not significant; a “+” sign=anti-inflammatory or increased cell numbers; a “−” sign=cell toxicity or pro-inflammatory. Type of series: cell-based, mouse. In outline: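 RAW 264.7 murine macrophages pretreated 1 h with compound or DMSO vehicle, then challenged with LPS (serotype 055:B5) at 30 or 60 ng/mL final for 24 h. After media replacement, viability measured by tetrazolium (MTS) conversion, absorbance at 490 nm, reported as O.D.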

For series [3], the system named is mpo:GFP zebrafish embryos (neutrophil migration to the wound site). The experiment in a line: mpo:GFP zebrafish fin-clip neutrophil migration (inflammation) assay. Further details: mpo:GFP inflammation n (survived/tested): concentration or dose not given beside the values. Type of series: in vivo. As to conditions: for minimal effective concentration: Danio rerio, Neutrophil, lowest concentration producing an effect, compounds not producing an effect shown at the highest evaluated concentration; for mpo:GFP inflammation n (survived/tested): embryos survived/tested at the concentration given. The text has this: (§2) Zebrafish embryology: The use of zebrafish embryo (Danio rerio) bioassays as a preclinical model in the classification of novel compounds has increased in recent years due to several factors including; low cost, ease of maintenance, speed of embryonic development, transparency of the embryos and genetic conservation between zebrafish and humans (Howe et al., Nature 2013; 496:498; Therapontos et al., PNAS 2009, 106:8573; Mahony et al., PNAS 2013, 110:12703; Beedie et al., Oncotarget 2016, 7(22):33237; Beedie et al., Mol. Cancer Ther. 2015, 14(10):2228). Two established zebrafish reporter lines were used—the fli1:EGFP line, where the fli1 promoter drives expression of enhanced green fluorescent protein within the developing vasculature (Lawson et al., 2002), and the Tg(mpo::EGFP) line (also known as mpo:GFP), which expresses green fluorescent protein via the neutrophil specific myeloperoxidase promoter (Renshaw et al., Blood 2006, 108:3976). The use of these zebrafish transgenic reporter lines allows for the identification of potential anti-angiogenic and anti-inflammatory compounds respectively, and both have been used previously to successfully classify the action of thalidomide analogs (Therapontos et al., 2009; Mahony et al., 2013; Beedie et al., Oncotarget 2016, 7(22):33237; Beedie et al., Mol. Cancer Ther. 2015, 14(10):2228). Zebrafish embryos were treated with analogs as previously described (Mahony et al., 2013). Briefly, fli1:EGFP embryos were collected and embryos were allowed to develop for 24 hours. Embryos were dechorionated manually and exposed to test compounds or vehicle control for a further 24 hours, imaged and analyzed for intersegmental vessel (ISV) growth. At 24 hours post fertilisation (hpf) the ISVs were ideal to study to visualize and analyze the actions of compounds on angiogenesis. At this time point ISVs were rapidly forming beneath the developing head, over the body and had yet to form in the tail (Lawson and Weinstein, Developmental Biology 2002, 248:307; Therapontos and Vargesson, Developmental Dynamics 2010, 239:2761). Additionally, these sprouts would go on to form the bilateral dorsal longitudinal anastomotic vessels. By treating before this fusion and formation occurs, the effect of each compound on the individual vessels as well as overall patterning structural integrity (Isogai et al., Development 2003, 130:5281) could be determined. Tg(mpo::EGFP) were tail fin clipped as previously detailed (Renshaw et al., 2006; Mahony et al., 2013; Beedie et al., Oncotarget 2016, 7(22):33237; Beedie et al., Mol. Cancer Ther. 2015, 14(10):2228) and incubated with test compounds or vehicle control at 72 hours post fertilization. Fish were imaged at 24 hours and the number of migratory neutrophils present at the wound site were counted. Compounds inducing an at least 50% reduction of neutrophils to the wound site were considered to have anti-inflammatory properties in this system. All larvae were assessed for viability and morphological integrity.
To assess the immunomodulatory effects of the thalidomide analogs, the mpo:gfp transgenic zebrafish line (Renshaw et al., Blood 2006, 108:3976-3978) was utilized because it is an accepted model of inflammation, and can be used to test the effect of anti-inflammatory agents. These embryos express GFP-tagged myeloperoxidase, where green fluorescence marks the neutrophil cells involved in the inflammatory response process, for example following injury, from 72 hours post fertilization (Renshaw et al., 2006; Mahony et al., 2013; Beedie et al., Oncotarget 2016, 7(22):33237). At 72 hpf the dorsal third of the tail fin was removed and the embryos were immersed in the desired compound or vehicle (FIGS. 5A-5C). The embryos were examined for the effect on the inflammatory response quantified as an induction and migration of neutrophils to the wound site 24 hours later.

In series [4] the test system is TNF-α protein. The experiment in a line: TNF-α protein level (ELISA) in LPS-challenged RAW 264.7 cells. Further details: key: NS=not significant; a “+” sign=anti-inflammatory or increased cell numbers; a “−” sign=cell toxicity or pro-inflammatory. To be noted: LPS 30 or 60 ng/mL, 24 h. Format: cell-based, mouse. In outline: as §1
For orientation: ELISA stands for enzyme-linked immunosorbent assay.

Series [5] deals with fli1:EGFP zebrafish embryos (intersegmental vessel growth). The experiment in a line: fli1:EGFP zebrafish embryo angiogenesis assay. More on the design: fli1:EGFP angiogenesis n (survived/tested): concentration or dose not given beside the values. As to conditions: for minimal effective concentration: Danio rerio, lowest concentration producing an effect, compounds not producing an effect shown at the highest evaluated concentration; for fli1:EGFP angiogenesis n (survived/tested): embryos alive after 24 hours of exposure. Format: in vivo.
Excerpt: as §2
To determine if the thalidomide analogs had any effect on angiogenesis, fli1:EGFP embryos (Lawson and Weinstein, Developmental Biology 2002, 248:307-318) were exposed to either vehicle or a compound of interest, over a range of concentrations and over a range of time points starting at 24 hpf. Images were obtained at three time points over 24 hours after exposure to the compounds. The best concentration and time point were selected. CPS49, a compound that is chemically and structurally similar to thalidomide breakdown products, and is tetrafluorinated (which adds stability and bioactivity to the compound) and that causes severe limb defects in chicken embryos, was used as a positive control. The embryos were imaged at 48 hpf (FIGS. 3A3L) and analyzed for both vessel formation and the extent of growth of the vasculature. […]

As a reminder, the minimal effective concentration is the lowest level tested that produced the effect sought.

For `O=C1CCC(N2C(=O)c3ccncc3C2=O)C(=O)N1` (stereo not drawn) [Compound 58], the Nitrite entry in series [1] (1 μM), in series [1] (10 μM) and in series [1] (30 μM) was “+” in each case. The Viability entry in series [2] (1 μM), in series [2] (10 μM) and in series [2] (30 μM) was “NS” each time. For the same compound, the results for the minimal effective concentration in series [3] and in series [5] were 5 µg/mL and 10 µg/mL, respectively. The “mpo:GFP inflammation n (survived/tested)” value in series [3] was 7/16. Further, the “anti-inflammatory activity (inhibition of neutrophil migration)” value in series [3] (in words) is recorded as “most effective analog at inhibiting the inflammatory response”. Moreover, the TNF-α entry in series [4] (1 μM), in series [4] (10 μM) and in series [4] (30 μM) was “NS” throughout. Also, the “fli1:EGFP angiogenesis n (survived/tested)” value in series [5] was 33/33.

For `O=C1c2ccccc2C(=O)N1c1nc2ccc(C(F)(F)F)cc2s1` [Compound 59, 2-(6-Trifluoromethyl-benzothiazol-2-yl)-1H-isoindole-1,3(2H)-dione], the Nitrite entry was “+” in series [1] (1 μM), “NS” in series [1] (10 μM) and “+” in series [1] (30 μM). In addition, the Viability result in series [2] (1 μM), in series [2] (10 μM) and in series [2] (30 μM) was “NS” throughout. Besides, the minimal effective concentration in series [3] is 100 µg/mL; in series [5], 10 µg/mL. Besides, the “mpo:GFP inflammation n (survived/tested)” value in series [3] is 6/11. In addition, the TNF-α entry in series [4] (1 μM) is “NS”; in series [4] (10 μM), “NS”; in series [4] (30 μM), “+”. The “fli1:EGFP angiogenesis n (survived/tested)” value in series [5] is given as 21/32.

For `O=C1c2cccc(O)c2C(=O)N1c1nc2ccc(C(F)(F)F)cc2s1` [Compound 61], the Nitrite entry in series [1] (1 μM) is reported as “NS”; in series [1] (10 μM) it was “+”; in series [1] (30 μM) it was “+”. Moreover, the Viability result is given as “NS” in series [2] (1 μM), “NS” in series [2] (10 μM) and “−” in series [2] (30 μM). The minimal effective concentration in series [3] was 1 µg/mL; in series [5], 100 µg/mL. Further, in series [3], the “mpo:GFP inflammation n (survived/tested)” value is 9/20. Besides, the TNF-α result was “NS” in series [4] (1 μM), “NS” in series [4] (10 μM) and “+” in series [4] (30 μM). Further, in series [5], the “fli1:EGFP angiogenesis n (survived/tested)” value is 3/15.

Regarding `O=C1c2ccccc2CN1c1nc2ccc(C(F)(F)F)cc2s1` [Compound 62], the Nitrite result in series [1] (1 μM) is “NS”; in series [1] (10 μM), “NS”; in series [1] (30 μM), “+”. In addition, the Viability result in series [2] (1 μM), in series [2] (10 μM) and in series [2] (30 μM) was “NS” each time. The minimal effective concentration in series [3] and in series [5] was 10 µg/mL in each case. In series [3], the “mpo:GFP inflammation n (survived/tested)” value is recorded as 6/20. In addition, the TNF-α entry in series [4] (1 μM), in series [4] (10 μM) and in series [4] (30 μM) was “NS” throughout. Besides, the “fli1:EGFP angiogenesis n (survived/tested)” value in series [5] is listed as 18/20.

As for `O=C1c2cccc([N+](=O)[O-])c2CN1c1nc2ccc(C(F)(F)F)cc2s1` [Compound 63], the Nitrite entry in series [1] (1 μM), in series [1] (10 μM) and in series [1] (30 μM) was “−” in each case. The values for the Viability result in series [2] (1 μM), in series [2] (10 μM) and in series [2] (30 μM) were “NS”, “NS” and “−”, respectively. The minimal effective concentration in series [3] was 100 µg/mL; in series [5], 200 µg/mL. Also, the “mpo:GFP inflammation n (survived/tested)” value in series [3] is on record as 12/20. The TNF-α entry in series [4] (1 μM), in series [4] (10 μM) and in series [4] (30 μM) was “NS” in each case. Further, the “fli1:EGFP angiogenesis n (survived/tested)” value in series [5] is 6/23.

On to `CC1(C)S[C@@H]2[C@H](N3C(=O)c4ccccc4C3=O)C(=O)N2[C@H]1C(=O)O` [Compound 64], for which the Nitrite entry in series [1] (1 μM), in series [1] (10 μM) and in series [1] (30 μM) was “NS” each time. The Viability entry in series [2] (1 μM), in series [2] (10 μM) and in series [2] (30 μM) was “NS” each time. For the same compound, the minimal effective concentration in series [3] and in series [5] was 10 µg/mL throughout. In addition, the “mpo:GFP inflammation n (survived/tested)” value in series [3] is 8/15. Moreover, the TNF-α entry in series [4] (1 μM), in series [4] (10 μM) and in series [4] (30 μM) was “NS” in each case. Further, the “fli1:EGFP angiogenesis n (survived/tested)” value in series [5] is 8/15.

As to `CC1(C)S[C@@H]2[C@H](N3Cc4ccccc4C3=O)C(=O)N2[C@H]1C(=O)O` [Compound 65, (1)-(2S,5R,6R)-3,3-Dimethyl-7-oxo-6-(1-oxo-1,3-dihydro-1H-isoindol-2-yl)-4-thia-1-azabicyclo[3.2.0]heptane-2-carboxylic acid], the Nitrite result in series [1] (1 μM), in series [1] (10 μM) and in series [1] (30 μM) was “NS” in each case. Moreover, the Viability result in series [2] (1 μM), in series [2] (10 μM) and in series [2] (30 μM) was “NS” each time. The minimal effective concentration in series [3] and in series [5] was 200 µg/mL in each case. In series [3], the “mpo:GFP inflammation n (survived/tested)” value was 10/20. Also, the TNF-α entry in series [4] (1 μM), in series [4] (10 μM) and in series [4] (30 μM) was “−” in each case. In addition, in series [5], the “fli1:EGFP angiogenesis n (survived/tested)” value is given as 13/13.

As for `FC(F)(F)c1ccc(/N=C2/c3ccccc3CN2c2ccc(C(F)(F)F)cn2)nc1` [Compound 66], the results for the Nitrite result in series [1] (1 μM), in series [1] (10 μM) and in series [1] (30 μM) were “NS”, “NS” and “+”, respectively. Also, the Viability entry in series [2] (1 μM) is “−”; in series [2] (10 μM), “NS”; in series [2] (30 μM), “−”. The minimal effective concentration in series [3] and in series [5] was 100 µg/mL throughout. Further, the “mpo:GFP inflammation n (survived/tested)” value in series [3] was 6/15. The TNF-α entry in series [4] (1 μM) is listed as “NS”; in series [4] (10 μM) it was “NS”; in series [4] (30 μM) it was “+”. Further, in series [5], the “fli1:EGFP angiogenesis n (survived/tested)” value is listed as 15/15.

Values taken from US11440880B2, “Thalidomide analogs and methods of use” (The USA, as represented by the Secretary, Department of …, priority 2015, dated 2022).
